The structures appear in SMILES notation.

Here are results for 19 molecules from US4801593A, “Chemotherapeutic agents” (Burroughs Wellcome Co., priority 1979, dated 1989).

One assay concerns virus. The assay is described as follows: Intranasal administration - simulation in vitro (plaque inhibition test, compound applied to the lids of the petri dishes). It counts as cell-based. Particulars: 1 μg applied in ethanol to the lids of the petri dishes; confluent sheet of cells covered with agarose gel. The text has this: (§1) Activity may be detected by the plaque inhibition (PI) test and measured by the plaque reduction (PR) test. Both assays involve the formation of a monolayer cell culture in a petri dish followed by infection with a virus suspension, and then overlaying the culture with nutrient agarose in the form of a gel. This gel ensures that there is no spread of virus throughout the culture and thus areas of localised cell destruction, or plaques, are formed.
In the plaque inhibition test a filter paper disc which holds 0.01 ml when impregnated with a solution of compound is placed on top of the agarose gel. The compound may then diffuse throughout the gel so that its greatest concentration will be around the disc and its lowest concentration towards the periphery of the petri dish. The efficacy of the compound may be detected by observing the zone of inhibition of plaque formation.
Petri dishes were prepared, as for the plaque inhibition test and the confluent sheet of cells was covered with a layer of agarose gel. The compound, 2-phenyltetrahydroisoquinoline (1 μg) was dissolved in ethanol, and applied to the lids of the petri dishes. When the ethanol had evaporated, leaving the compound spread over the inside of the lids, these were replaced on the petri dishes.
As to `c1ccc(N2CCc3ccccc3C2)cc1` [Example 4, 2-phenyl-1,2,3,4-tetrahydroisoquinoline], the “inhibition of plaque formation” value is listed as “total inhibition of plaque formation”.

Another assay has as its system rhinovirus serotype 1B. The assay is described as follows: plaque reduction (PR) test. It counts as cell-based. Conditions: Enterovirus, read-out: PR(ED50). As for the experimental part: as §1
Detectable activity is measured with the plaque reduction assay. A range of concentrations of compound of known molarity are incorporated in the nutrient agarose overlay. Plaque suppression is proportional to compound concentration. Plaque numbers are expressed as percentages of a control, and a dose response curve may be drawn. From this curve 50% of the effective dose(ED50) may be estimated.
In the case of `c1ccc(N2CCc3ccccc3C2)cc1` [Example 4, 2-phenyl-1,2,3,4-tetrahydroisoquinoline], the EC50 stood at 70 nM.

The assay is the same for the next values; noted with them: Enterovirus; Activity versus rhinovirus serotype 1B; monolayer cell culture, compound in nutrient agarose overlay; read-out: PR(ED50).
Consider `c1ccc(C2CCc3ccccc3S2)cc1` (centres unmarked) [Example 1, thioflavan], for which the EC50 turned out to be 28 nM.
With `Clc1ccc(C2CCc3cc(Cl)ccc3S2)cc1` (centres unmarked) [Example 3, 4',6-dichlorothioflavan], the EC50 was 44 nM.
For `Clc1ccc(N2CCc3ccccc3C2)cc1` [Example 7, 1,2,3,4-tetrahydro-2-(4-chlorophenyl)isoquinoline], the EC50 amounted to 100 nM.
Still for that read-out and setting: the figure for `Fc1ccc(N2CCc3ccccc3C2)cc1` [Example 8, 1,2,3,4-tetrohydro-2-(4-fluorophenyl)isoquinoline] is 210 nM; for `Cc1ccc(N2CCc3ccccc3C2)cc1` [Example 11, 1,2,3,4-tetrahydro-2-(4-methylphenyl)isoquinoline] it is 1000 nM; for `COc1ccc(N2CCc3ccccc3C2)cc1` [Example 12, 1,2,3,4-tetrahydro-2-(4-methoxyphenyl)isoquinoline] it is 2450 nM.
In the case of `Cc1cccc(C)c1N1CCc2ccccc2C1` [Example 13, 1,2,3,4-tetrahydro-2-(2,6-dimethylphenyl)isoquinoline], the EC50 turned out to be 75 nM.
On to `Oc1ccc(N2CCc3ccccc3C2)cc1` [Example 15, 1,2,3,4-tetrahydro-2-(4-hydroxyphenyl)isoquinoline], for which the EC50 was determined as 1850 nM.
Consider `COc1ccc(N2CCc3ccccc3C2)c(OC)c1` [Example 16, 1,23,4-tetrahydro-2-(2-4-dimethoxyphenyl)isoquinoline], for which the EC50 is 8000 nM.
Still for that read-out and setting: the figure for `Clc1ccc2c(c1)CCN(c1ccccc1)C2` [Example 18, 6-chloro-2-phenyl-1,2,3,4-tetrahydroisoquinoline] is 570 nM; for `Clc1ccc(N2CCc3cc(Cl)ccc3C2)cc1` [Example 19, 1,2,3,4-tetrahydro-2-(4-chlorophenyl)-6-chloroisoquinoline] it is 50 nM; for `Fc1ccc(N2CCc3cc(Cl)ccc3C2)cc1` [Example 20, 1,2,3,4-tetrahydro-2-(4-fluorophenyl)-6-chloroisoquinoline] it is 210 nM.
In the case of `Clc1ccc2c(c1)CN(c1ccccc1)CC2` [Example 21, 7-chloro-2-phenyl-1,2,3,4-tetrahydroisoquinoline], the EC50 is 110 nM.
Still for that read-out and setting: the same measure for `Clc1ccc(N2CCc3ccc(Cl)cc3C2)cc1` [Example 22, 7-chloro-2-(4-chlorophenyl)-1,2,3,4-tetrahydroisoquinoline]: 130 nM; for `Clc1ccc2c(c1)CN(c1ccc(Cl)c(Cl)c1)CC2` [Example 23, 7-chloro-2-(3,4-dichlorophenyl)-1,2,3,4-tetrahydroisoquinoline]: 620 nM.
The same measure, in the same setting: the same measure for `c1ccc(C2CCc3ccccc3N2)cc1` (centres unmarked) [Example 24, 1,2,3,4-tetrahydro-2-phenylquinoline]: 330 nM.
For the molecule `c1ccc(C2Cc3ccccc3CN2)cc1` (centres unmarked) [Example 26, 3-phenyl-1,2,3,4-tetrahydroisoquinoline], the EC50 was determined as 290 nM.
Consider `c1ccc(C2COc3ccccc3C2)cc1` (centres unmarked) [Example 27, isoflavan], for which the EC50 came to 820 nM.
